Our source for the IC50 values is patent US20070004660A1, “Synergistic Modulation of Flt3 Kinase Using Alkylquinolines and Alkylquinazolines” (priority 2005, published 2007).

This test addresses T1, wild-type FLT3 receptor (Homo sapiens, UniProt P36888).
T1 construct: host or cells: Baf3 (murine B cell lymphoma line), stably transfected
T1 sequence (P36888 27-993): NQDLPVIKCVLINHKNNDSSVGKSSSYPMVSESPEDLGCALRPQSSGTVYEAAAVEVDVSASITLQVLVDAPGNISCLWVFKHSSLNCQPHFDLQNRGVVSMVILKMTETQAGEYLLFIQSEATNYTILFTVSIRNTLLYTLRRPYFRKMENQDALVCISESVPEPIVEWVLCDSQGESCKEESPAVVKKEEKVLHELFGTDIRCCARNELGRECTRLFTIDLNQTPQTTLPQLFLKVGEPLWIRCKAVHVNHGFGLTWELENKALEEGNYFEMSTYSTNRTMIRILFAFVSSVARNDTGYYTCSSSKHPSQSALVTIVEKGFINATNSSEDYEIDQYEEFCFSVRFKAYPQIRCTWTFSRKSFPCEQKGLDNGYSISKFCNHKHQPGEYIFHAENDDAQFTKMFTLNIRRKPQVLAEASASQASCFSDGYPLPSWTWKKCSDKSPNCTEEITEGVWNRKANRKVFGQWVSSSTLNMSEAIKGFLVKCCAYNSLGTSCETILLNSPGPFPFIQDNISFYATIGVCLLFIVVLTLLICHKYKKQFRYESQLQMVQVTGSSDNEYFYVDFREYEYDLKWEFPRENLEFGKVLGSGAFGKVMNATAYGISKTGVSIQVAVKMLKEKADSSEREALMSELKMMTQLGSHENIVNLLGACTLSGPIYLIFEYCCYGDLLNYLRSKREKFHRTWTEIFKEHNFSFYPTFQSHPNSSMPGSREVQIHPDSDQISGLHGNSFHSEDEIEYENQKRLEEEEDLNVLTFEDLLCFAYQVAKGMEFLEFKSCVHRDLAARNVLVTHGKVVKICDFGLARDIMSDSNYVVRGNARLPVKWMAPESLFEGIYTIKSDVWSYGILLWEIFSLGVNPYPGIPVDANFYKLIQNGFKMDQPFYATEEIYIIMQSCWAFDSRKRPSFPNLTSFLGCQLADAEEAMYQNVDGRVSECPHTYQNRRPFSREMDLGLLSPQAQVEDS
Kind of test: Cell-based FLT3 receptor ELISA (FLT ligand-induced phosphorylation in Baf3 FLT3 cells). The settings on record: 100 ng/mL Flt ligand, uncertainty ±20%. The essentials: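 Receptor phosphotyrosine measured by sandwich ELISA (anti-FLT3 capture, HRP anti-pTyr, luminescence) in FLT3-transfected murine Baf3 cells given 1 h compound pretreatment and 10 min 100 ng/mL FLT ligand after overnight low-serum starvation; triplicates, IC50 from nonlinear regression.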
On the technique in general: ELISA stands for enzyme-linked immunosorbent assay.

Usually IC50 stands for the concentration at which inhibition is half-maximal. A low value points to higher potency.

In turn, `CC(C)Oc1ccc(NC(=O)N2CCC(c3ncnc4cc(NCCCN5CCN(C)CC5)ccc34)CC2)cc1` [Example 102, 4-{7-[3-(4-Methyl-piperazin-1-yl)-propylamino]-quinazolin-4-yl}-piperidine-1-carboxylic acid (4-isopropoxy-phenyl)-amide] returned an IC50 of 5 nM. Next, `CC(C)Oc1ccc(NC(=O)N2CCC(c3ncnc4cc(N5CCN(C)CC5)ccc34)CC2)cc1` [Example 103, 4-[7-(4-Methyl-piperazin-1-yl)-quinazolin-4-yl]-piperidine-1-carboxylic acid (4-isopropoxy-phenyl)-amide]: 13 nM; `CN1CCN(CCCOc2ccc3c(C4CCN(C(=O)Nc5ccc(N6CCCC6)nc5)CC4)ncnc3c2)CC1` [Example 104, 4-{7-[3-(4-Methyl-piperazin-1-yl)-propoxy]-quinazolin-4-yl}-piperidine-1-carboxylic acid (6-pyrrolidin-1-yl-pyridin-3-yl)-amide]: 16 nM; `CN1CCN(CCCOc2ccc3c(C4CCN(C(=O)Nc5cnc(N6CCCC6)nc5)CC4)ncnc3c2)CC1` [Example 105, 4-{7-[3-(4-Methyl-piperazin-1-yl)-propoxy]-quinazolin-4-yl}-piperidine-1-carboxylic acid (2-pyrrolidin-1-yl-pyrimidin-5-yl)-amide]: 98 nM. Next, `CN1CCC(COc2ccc3c(C4CCN(C(=O)Nc5ccc(OC6CCC6)nc5)CC4)ncnc3c2)CC1` [Example 107, 4-[7-(1-Methyl-piperidin-4-ylmethoxy)-quinazolin-4-yl]-piperidine-1-carboxylic acid (6-cyclobutoxy-pyridin-3-yl)-amide]: 21 nM; `CN1CCC(COc2ccc3c(C4CCN(C(=O)Nc5ccc(N6CCOCC6)nc5)CC4)ncnc3c2)CC1` [Example 108, 4-[7-(1-Methyl-piperidin-4-ylmethoxy)-quinazolin-4-yl]-piperidine-1-carboxylic acid (6-morpholin-4-yl-pyridin-3-yl)-amide]: 53 nM; `CN1CCC(COc2ccc3c(C4CCN(C(=O)Nc5ccc(N6CCCC6)cc5)CC4)ncnc3c2)CC1` [Example 109, 4-[7-(1-Methyl-piperidin-4-ylmethoxy)-quinazolin-4-yl]-piperidine-1-carboxylic acid (4-pyrrolidin-1-yl-phenyl)-amide]: 10 nM. The compound `O=C(NCCCOc1ccc2c(C3CCN(C(=O)Nc4ccc(N5CCCC5)nc4)CC3)ncnc2c1)N1CCOCC1` [Example 112, Morpholine-4-carboxylic acid (3-{4-[1-(6-pyrrolidin-1-yl-pyridin-3-ylcarbamoyl)-piperidin-4-yl]-quinazolin-7-yloxy}-propyl)-amide] showed an IC50 of 79 nM. To `CCN1CCN(CCCOc2ccc3c(C4CCN(C(=O)Nc5ccc(N6CCOCC6)cc5)CC4)ncnc3c2)CC1` [Example 115, 4-{7-[3-(4-Ethyl-piperazin-1-yl)-propoxy]-quinazolin-4-yl}-piperidine-1-carboxylic acid (4-morpholin-4-yl-phenyl)-amide] belongs 9 nM; to `O=C(Nc1ccc(N2CCOCC2)cc1)N1CCC(c2ncnc3cc(OCCCN4CCN(CCO)CC4)ccc23)CC1` [Example 116, 4-(7-{3-[4-(2-Hydroxy-ethyl)-piperazin-1-yl]-propoxy}-quinazolin-4-yl)-piperidine-1-carboxylic acid (4-morpholin-4-yl-phenyl)-amide], 25 nM; to `CC(=O)N1CCN(CCCOc2ccc3c(C4CCN(C(=O)Nc5ccc(N6CCOCC6)cc5)CC4)ncnc3c2)CC1` [Example 117, 4-{7-[3-(4-Acetyl-piperazin-1-yl)-propoxy]-quinazolin-4-yl}-piperidine-1-carboxylic acid (4-morpholin-4-yl-phenyl)-amide], 88 nM. Next, `CS(=O)(=O)N1CCN(CCCOc2ccc3c(C4CCN(C(=O)Nc5ccc(N6CCOCC6)cc5)CC4)ncnc3c2)CC1` [Example 118, 4-{7-[3-(4-Methanesulfonyl-piperazin-1-yl)-propoxy]-quinazolin-4-yl}-piperidine-1-carboxylic acid (4-morpholin-4-yl-phenyl)-amide]: 10 nM; `O=C(Nc1ccc(N2CCOCC2)cc1)N1CCC(c2ncnc3cc(OCCCN4CCC[C@H]4CO)ccc23)CC1` [Example 119, (S)-4-{7-[3-(2-Hydroxymethyl-pyrrolidin-1-yl)-propoxy]-quinazolin-4-yl}-piperidine-1-carboxylic acid (4-morpholin-4-yl-phenyl)-amide]: 37 nM; `CN(C)C(=O)N1CCN(CCCOc2ccc3c(C4CCN(C(=O)Nc5ccc(N6CCOCC6)cc5)CC4)ncnc3c2)CC1` [Example 120, 4-(3-{4-[1-(4-Morpholin-4-yl-phenylcarbamoyl)-piperidin-4-yl]-quinazolin-7-yloxy}-propyl)-piperazine-1-carboxylic acid dimethylamide]: 23 nM. Next, `CC(C)Oc1ccc(NC(=O)N2CCC(c3ncnc4cc(OCCCOS(C)(=O)=O)ccc34)CC2)cc1` [Example 121, Methanesulfonic acid 3-{4-[1-(4-isopropoxy-phenylcarbamoyl)-piperidin-4-yl]-quinazolin-7-yloxy}-propyl ester]: 117 nM; `CS(=O)(=O)OCCCOc1ccc2c(C3CCN(C(=O)Nc4ccc(N5CCOCC5)cc4)CC3)ncnc2c1` [Example 122, Methanesulfonic acid 3-{4-[1-(4-morpholin-4-yl-phenylcarbamoyl)-piperidin-4-yl]-quinazolin-7-yloxy}-propyl ester]: 110 nM. `O=C(Nc1ccc(N2CCOCC2)cc1)N1CCC(c2ncnc3cc(OCCCN4CCCC4)ccc23)CC1` [Example 124, 4-[7-(3-Pyrrolidin-1-yl-propoxy)-quinazolin-4-yl]-piperidine-1-carboxylic acid (4-morpholin-4-yl-phenyl)-amide] showed an IC50 of 63 nM. With `CN1CCCN(CCCOc2ccc3c(C4CCN(C(=O)Nc5ccc(N6CCOCC6)cc5)CC4)ncnc3c2)CC1` [Example 125, 4-{7-[3-(4-Methyl-[1,4]diazepan-1-yl)-propoxy]-quinazolin-4-yl}-piperidine-1-carboxylic acid (4-morpholin-4-yl-phenyl)-amide], the IC50 was found to be 66 nM.
